pEC50: −log10 of the molar value.
Columns and labels:
TRα = molecular target: T1, TRα (Homo sapiens, UniProt P10827); assay: Thyroid-hormone reporter-gene assay (TRα-Gal4 hybrid, luciferase, HEK293); type: cell-based; conditions: reporter cells, 24 hr incubation; Table 2; read-out: TRα (EC50)
T1 construct: expressed in transfected cells; host or cells: HEK293
T1 sequence (P10827 163-410 isoform P10827-2 limits assumed): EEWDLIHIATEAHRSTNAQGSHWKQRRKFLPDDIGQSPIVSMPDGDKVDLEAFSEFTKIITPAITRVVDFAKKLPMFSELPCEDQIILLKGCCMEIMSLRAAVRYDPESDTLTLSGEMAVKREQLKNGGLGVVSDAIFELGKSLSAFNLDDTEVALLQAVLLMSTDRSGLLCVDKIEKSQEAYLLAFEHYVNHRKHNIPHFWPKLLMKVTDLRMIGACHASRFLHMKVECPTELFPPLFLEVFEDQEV
Protocol: (§1) Compounds were tested for thyroid-hormone receptor activity using TR reporter-gene assays. Reporter cells used in the assays express a TR-receptor hybrid (either TRα or TRβ) in which the native N-terminal DNA binding domain (DBD) has been replaced with that of the yeast Gal4 DBD. The reporter gene, firefly luciferase, is functionally linked to the Gal4 upstream activation sequence (UAS). Both cell lines were derived from human embryonic kidney (HEK293).
(§2) Step 1: A suspension of reporter cells was prepared in cell recovery medium containing 10% charcoal-stripped FBS, and dispensed into assay plates. The plates were pre-incubated for 6 hours in a cell culture incubator (37° C./5% CO2/85% humidity).
(§3) These intermediate stocks were subsequently diluted directly into compound screening medium containing 10% charcoal-stripped FBS to generate “2×-concentration” treatment media (containing 0.2, 0.4 or 0.8% DMSO).
(§4) Step 3: At the end of the pre-incubation period, culture media were discarded from the assay plates, and all wells received 100 μl of compound screening medium. 100 μl of each of the previously prepared “2×-concentration” treatment media were dispensed into duplicate assay wells, thereby achieving the desired final treatment concentrations. The final concentration of DMSO in all assay wells was 0.1, 0.2 or 0.4%. Assay plates were incubated for 24 hr in a cell culture incubator (37° C./5% CO2/85% humidity).
(§5) Step 4: At the 24 h assay endpoint, treatment media were discarded and 100 μl/well of luciferase detection reagent was added. Relative luminometer units (RLUs) were quantified from each assay well.

TRβ = molecular target: T2, TRβ (Homo sapiens, UniProt P10828); assay: Thyroid-hormone reporter-gene assay (TRβ-Gal4 hybrid, luciferase, HEK293); type: cell-based; conditions: Table 2; for T3-SI (selectivity index): calculated as EC50 (TRα)/EC50 (TRβ); for pEC50: reporter cells, 24 hr incubation, read-out: TRβ (EC50)
T2 construct: expressed in transfected cells; host or cells: HEK293
T2 sequence (P10828 217-461 limits assumed): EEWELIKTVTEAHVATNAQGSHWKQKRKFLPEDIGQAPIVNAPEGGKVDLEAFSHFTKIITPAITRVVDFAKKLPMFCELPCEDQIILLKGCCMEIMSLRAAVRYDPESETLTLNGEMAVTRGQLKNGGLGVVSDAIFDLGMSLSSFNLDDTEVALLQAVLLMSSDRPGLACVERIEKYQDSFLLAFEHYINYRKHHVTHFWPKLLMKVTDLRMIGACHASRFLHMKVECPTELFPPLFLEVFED
Protocol: as §1, §2, §3, §4, §5

Row | pEC50 (TRα) | T3-SI (selectivity index) (TRβ) | pEC50 (TRβ) | Compound
1 | < 6.00 | ++ (3×<T3-SI≤30×) | 6.00 to 7.00 | Cc1cc(OCC(=O)O)cc(C)c1Cc1ccc(O)c(C(C)C)c1F [Compound 2, 2-(4-(2-fluoro-4-hydroxy-3-isopropylbenzyl)-3,5-dimethylphenoxy)acetic acid]
2 | < 6.00 | ++ (3×<T3-SI≤30×) | 6.00 to 7.00 | Cc1cc(OCC(=O)O)cc(C)c1Cc1ccc(O)c(-c2cccc(OC(F)F)c2)c1F [Compound 3, 2-(4-((3′-(difluoromethoxy)-2-fluoro-6-hydroxy-[1,1′-biphenyl]-3-yl)methyl)-3,5-dimethylphenoxy)acetic acid]
3 | 7.00 to 8.00 | ++ (3×<T3-SI≤30×) | > 8.00 | Cc1cc(OCC(=O)O)cc(C)c1Cc1ccc(O)c(C(C)c2ccc(F)cc2)c1F (stereo not drawn) [Compound 6, 2-(4-(2-fluoro-3-(1-(4-fluorophenyl)ethyl)-4-hydroxybenzyl)-3,5-dimethylphenoxy)acetic acid]
4 | 7.00 to 8.00 | ++ (3×<T3-SI≤30×) | 7.00 to 8.00 | CCc1cc(OCC(=O)O)cc(C)c1Cc1ccc(O)c(C(C)C)c1F [Compound 9, 2-(3-ethyl-4-(2-fluoro-4-hydroxy-3-isopropylbenzyl)-5-methylphenoxy)acetic acid]
5 | 7.00 to 8.00 | ++ (3×<T3-SI≤30×) | > 8.00 | C=C(C)c1cc(OCC(=O)O)cc(C)c1Cc1ccc(O)c(C(C)C)c1F [Compound 12, 2-(4-(2-fluoro-4-hydroxy-3-isopropylbenzyl)-3-methyl-5-(prop-1-en-2-yl)phenoxy)acetic acid]
6 | > 8.00 | ++ (3×<T3-SI≤30×) | > 8.00 | Cc1cc(OCC(=O)O)cc(C(C)C)c1Cc1ccc(O)c(C(C)C)c1F [Compound 13, 2-(4-(2-fluoro-4-hydroxy-3-isopropylbenzyl)-3-isopropyl-5-methylphenoxy)acetic acid]
7 | 7.00 to 8.00 | ++ (3×<T3-SI≤30×) | 7.00 to 8.00 | CON(C)C(=O)COc1cc(Cl)c(Cc2ccc(O)c(C(C)C)c2F)c(Cl)c1 [Compound 22, 2-(3,5-dichloro-4-(2-fluoro-4-hydroxy-3-isopropylbenzyl)phenoxy)-N-methoxy-N-methylacetamide]
8 | 6.00 to 7.00 | ++ (3×<T3-SI≤30×) | 7.00 to 8.00 | O=C(O)COc1cc(Cl)c(Cc2ccc(O)c(-c3cccc(OC(F)F)c3)c2F)c(Cl)c1 [Compound 24, 2-(3,5-dichloro-4-((3′-(difluoromethoxy)-2-fluoro-6-hydroxy-[1,1′-biphenyl]-3-VI)methyl)phenoxy)acetic acid]
9 | 7.00 to 8.00 | ++ (3×<T3-SI≤30×) | > 8.00 | O=C(O)COc1cc(Cl)c(Cc2ccc(O)c(-c3cc(C(F)(F)F)ccc3F)c2F)c(Cl)c1 [Compound 25, 2-(3,5-dichloro-4-((2,2′-difluoro-6-hydroxy-5′-(trifluoromethyl)-[1,1′-biphenyl]-3-yl)methyl)phenoxy)acetic acid]
10 | 6.00 to 7.00 | ++ (3×<T3-SI≤30×) | 7.00 to 8.00 | O=C(O)COc1cc(Cl)c(Cc2ccc(O)c(-c3cc(OC(F)F)ccc3F)c2F)c(Cl)c1 [Compound 26, 2-(3,5-dichloro-4-((5′-(difluoromethoxy)-2,2′-difluoro-6-hydroxy-[1,1′-biphenyl]-3-VI)methyl)phenoxy)acetic acid]
11 | 7.00 to 8.00 | ++ (3×<T3-SI≤30×) | 7.00 to 8.00 | O=C(O)COc1cc(Cl)c(Cc2ccc(O)c(Cc3ccc(F)cc3)c2F)c(Cl)c1 [Compound 28, 2-(3,5-dichloro-4-(2-fluoro-3-(4-fluorobenzyl)-4-hydroxybenzyl)phenoxy)acetic acid]
12 | 7.00 to 8.00 | ++ (3×<T3-SI≤30×) | > 8.00 | CC(c1ccc(F)cc1)c1c(O)ccc(Cc2c(Cl)cc(OCC(=O)O)cc2Cl)c1F (stereo not drawn) [Compound 30, 2-(3,5-dichloro-4-(2-fluoro-3-(1-(4-fluorophenyl)ethyl)-4-hydroxybenzyl)phenoxy)acetic acid]

From patent US12466781B2, “Thyromimetics” (Autobahn Therapeutics, Inc., priority 2019, dated 2025)
